Experimental data as given in patent US20170165282A1, “USE OF BETA-NICOTINAMIDE MONONUCLEOTIDE IN PREPARATION OF DRUGS FOR PREVENTING AND TREATING ARTERIOSCLEROSIS AND CARDIO-CEREBROVASCULAR DISEASES, AND DRUGS CONTAINING THE SAME” (BONTAC BIO-ENGINEERING (SHENZHEN) CO., LTD, priority 2015, published 2017).

Assays:
[1] = tested on: arteriosclerosis (lesion of the aorta) in guinea pigs fed on high-fat diet; test: Guinea pig high-fat diet arteriosclerosis model, lesion area of aorta (Sudan IV staining); format: in vivo
Protocol: 80 SPF healthy guinea pigs (female:male 1:1) having a body weight of 250-300 g, were assigned to 8 groups at random, each group having 10 animals. The groups include:
(1) a normal control group, fed on basal diet, and allowed to free access to water during experiment;
(2) a high fat control group, fed on high-fat diet, and allowed to free access to water during experiment;
(3) a high fat prevention group, fed on high-fat diet, dosed with 10 mg NMN/kg body weight by gavage every day, and allowed to free access to water during experiment;
(4) a low-dose NMN group, fed on high-fat diet, dosed with 0.1 mg NMN/kg body weight by gavage every day from week 7, and allowed to free access to water during experiment;
(5) a medium-dose NMN group, fed on high-fat diet, dosed with 10 mg NMN/kg body weight by gavage every day from week 7, and allowed to free access to water during experiment;
(6) a high-dose NMN group, fed on high-fat diet, dosed with 20 mg NMN/kg body weight by gavage every day from week 7, and allowed to free access to water during experiment;
(7) NMN+NR gavage group: fed on high-fat diet, dosed with 10 mg NMN/kg body weight and 1 mg NR/kg body weight by gavage every day from week 7, and allowed to free access to water during experiment.
(8) NMN+NR injection group: fed on high-fat diet, dosed with 10 mg NMN/kg body weight and 5 mg NR/kg body weight by intramuscular injection every day from week 7, and allowed to free access to water during experiment.
The formulation of the high-fat diet includes 83% basal diet, 2% cholesterol, and 15% lard oil.
At the end of week 10, all the experimental animals was fasted (allowed to access to water) for 12 hrs and then sacrificed. The aorta was isolated, dissected longitudinally along the midline of the anterior wall, and stained with Sudan IV. […] The lesion area pathologically measured and the total endangium area were quantified, and the degree of arteriosclerosis was expressed by percentages of the lesion area relative to the total endangium area of the aorta.
Statistical analysis: All the experimental data is analyzed by SPSS13.0 Statistics software. The measurement data is expressed as x±s, and t test is applied to check the statistical significance. Where P<0.05, there is statistical significance.

[2] = tested on: patients having cardio-cerebrovascular diseases resulting from arteriosclerosis; test: Clinical trial in patients with cardio-cerebrovascular diseases resulting from arteriosclerosis; format: in vivo, human; conditions: for Total effective rate: excluding the withdrawing patients
From the text: 300 patients (male:female 1:1, aged 35-78 years and 57.5 years on average, and having a course of disease of the shortest 1.5 years, the longest 7 years, and 4.6 years on average) diagnosed as having cardio-cerebrovascular diseases resulting from arteriosclerosis were selected at random as subjects for clinical observation. The patients were assigned to a group A, a group B, and a group C at random, each group having 100 patients.
Group A: The patients were orally administered with NMN at a dosage of 10 mg/kg body weight before or after meals every day, and the diet was controlled as desired.
Group B: The patients were orally administered with NMN at a dosage of 10 mg/kg body weight and with NR at a dosage of 2 mg/kg body weight before or after meals every day, and the diet was controlled as desired.
Group C: The patients were intramusculary injected with NMN at a dosage of 10 mg/kg body weight and with NR at a dosage of 3 mg/kg body weight before or after meals every day, and the diet was controlled as desired.
(1) Obvious effectiveness: The health is built up, the body is powerful, the blood lipid and blood pressure drop to normal levels, the palpitation, chest pain, chest tightness, headache, dizziness, decreased vision, decreased memory, insomnia and dreamful sleep, and other clinical symptoms are obvious alleviated.
(2) Effectiveness: The health is built up, the blood lipid and blood pressure drop slightly, the palpitation, chest pain, chest tightness, headache, dizziness, decreased vision, decreased memory, insomnia and dreamful sleep, and other clinical symptoms are alleviated to some extent.
(3) Ineffectiveness: There is no obvious improvement in the clinical symptoms.

[3] = Group A: oral NMN 10 mg/kg every day, after 1 month
[4] = Group A: oral NMN 10 mg/kg every day, after 1 month, 100 patients

For `NC(=O)c1ccc[n+]([C@@H]2O[C@H](COP(=O)([O-])O)[C@@H](O)[C@H]2O)c1` [NMN, β-nicotinamide mononucleotide], the “Rate of lesion area of aorta (%)” value ([1]; high fat prevention group: high-fat diet, 10 mg NMN/kg body weight by gavage every day, end of week 10, x±s) was 13 ± 2%, the “Rate of lesion area of aorta (%)” value ([1]; high-dose: high-fat diet, 20 mg NMN/kg by gavage every day from week 7, end of week 10, x±s) was 18 ± 4% and the “Rate of lesion area of aorta (%)” value ([1]; low-dose: high-fat diet, 0.1 mg NMN/kg by gavage every day from week 7, end of week 10, x±s) was 58 ± 5%. The “Rate of lesion area of aorta (%)” value ([1]; medium-dose: high-fat diet, 10 mg NMN/kg by gavage every day from week 7, end of week 10, x±s) was 27 ± 3%, the “Time after administration at which patients with mild disease are cured” value ([2]; Group A: oral NMN 10 mg/kg body weight every day) was 7 days and the “Patients showing obvious effectiveness” value [2, 3] was 67 out of 100 patients. It also gave a Patients showing effectiveness [2, 4] of 28 patients, a Patients showing ineffectiveness [2, 4] of 4 patients and a Total effective rate [2, 3] of 96%. For the same molecule, the Total effective rate ([2]; Group A: oral NMN 10 mg/kg every day, after 1 month, listed as β-nicotinamide mononucleotide) was “up to 96%”.
